Like-named read-outs stand apart in the source and are kept apart here.
Legend:
[1] = biological target: T1, hNET (Homo sapiens, UniProt P23975); assay: cell-based
[2] = biological target: T2, hDAT (Homo sapiens, UniProt Q01959); assay: Inhibition of [125I]RTI-55 binding, HEK-hDAT membranes; conditions: for fold decrease in hDAT affinity: compared to pentedrone
[3] = biological target: T1, hNET; assay: biochemical; type: binding
[4] = biological target: T2, hDAT; assay: Inhibition of [3H]DA uptake by HEK-hDAT cells; type: cell-based; conditions: for Ratio DAT/SERT: 1/(DAT IC50) divided by 1/(SERT IC50), uptake, higher = more DAT selective
[5] = biological target: T3, hSERT (Homo sapiens, UniProt P31645); assay: Inhibition of [3H]5-HT uptake by HEK-hSERT cells; type: cell-based; conditions: for selectivity for SERT over DAT (uptake potency): uptake inhibition potencies; for fold increase in hSERT uptake potency: compared to pentedrone
T3 sequence (P31645 whole entry): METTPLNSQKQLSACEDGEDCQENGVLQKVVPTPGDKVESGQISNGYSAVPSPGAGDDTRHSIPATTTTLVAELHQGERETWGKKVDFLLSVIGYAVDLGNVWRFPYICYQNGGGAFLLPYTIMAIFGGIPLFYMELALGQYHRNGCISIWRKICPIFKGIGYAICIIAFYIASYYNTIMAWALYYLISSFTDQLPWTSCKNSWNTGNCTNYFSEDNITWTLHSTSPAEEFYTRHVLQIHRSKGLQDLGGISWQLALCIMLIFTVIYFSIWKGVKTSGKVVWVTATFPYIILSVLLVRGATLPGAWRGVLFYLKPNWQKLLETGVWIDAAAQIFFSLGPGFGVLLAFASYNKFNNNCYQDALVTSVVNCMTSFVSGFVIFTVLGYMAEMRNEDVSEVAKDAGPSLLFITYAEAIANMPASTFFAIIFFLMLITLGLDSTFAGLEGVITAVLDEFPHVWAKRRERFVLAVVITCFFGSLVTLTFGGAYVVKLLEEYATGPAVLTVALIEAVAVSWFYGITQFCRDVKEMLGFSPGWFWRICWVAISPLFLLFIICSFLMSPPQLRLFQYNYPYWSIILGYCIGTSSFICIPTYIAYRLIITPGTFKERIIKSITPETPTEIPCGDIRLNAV

[6] = biological target: T2, hDAT; assay: Drug-induced release of preloaded [3H]DA from HEK-hDAT cells; type: cell-based; conditions: for releasing efficacy at hDAT: [3H]DA release; for % maximum release ± sem, hDAT [3H]DA: relative to maximal AUC induced by METH (1 or 10 μM)
[7] = biological target: T3, hSERT; assay: Drug-induced release of preloaded [3H]5-HT from HEK-hSERT cells; type: cell-based; conditions: for releasing efficacy at hSERT: [3H]5-HT release; for % maximum release ± sem, hSERT [3H]5-HT: relative to maximal AUC induced by METH (0.3–1 mM)
[8] = biological target: T1, hNET; assay: Drug-induced release of preloaded [3H]NE from HEK-hNET cells; type: cell-based; conditions: for releasing efficacy at hNET: [3H]NE release; for EC50: read-out: Drug-induced release of [3H]neurotransmitter EC50 ± sem, hNET [3H]NE, HEK-hNET cells; for % maximum release ± sem, hNET [3H]NE: relative to maximal AUC induced by METH (0.3 or 1 μM)
[9] = biological target: T3, hSERT; assay: Inhibition of [125I]RTI-55 binding, HEK-hSERT membranes
[10] = read-out: Inhibition of [3H]neurotransmitter uptake IC50 ± sem, hNET [3H]NE, HEK-hNET cells
[11] = read-out: Inhibition of [125I]RTI-55 binding Ki ± sem, hDAT, HEK-hDAT membranes
[12] = read-out: Inhibition of [125I]RTI-55 binding Ki ± sem, hNET, HEK-hNET membranes

T2 sequence (Q01959 whole entry): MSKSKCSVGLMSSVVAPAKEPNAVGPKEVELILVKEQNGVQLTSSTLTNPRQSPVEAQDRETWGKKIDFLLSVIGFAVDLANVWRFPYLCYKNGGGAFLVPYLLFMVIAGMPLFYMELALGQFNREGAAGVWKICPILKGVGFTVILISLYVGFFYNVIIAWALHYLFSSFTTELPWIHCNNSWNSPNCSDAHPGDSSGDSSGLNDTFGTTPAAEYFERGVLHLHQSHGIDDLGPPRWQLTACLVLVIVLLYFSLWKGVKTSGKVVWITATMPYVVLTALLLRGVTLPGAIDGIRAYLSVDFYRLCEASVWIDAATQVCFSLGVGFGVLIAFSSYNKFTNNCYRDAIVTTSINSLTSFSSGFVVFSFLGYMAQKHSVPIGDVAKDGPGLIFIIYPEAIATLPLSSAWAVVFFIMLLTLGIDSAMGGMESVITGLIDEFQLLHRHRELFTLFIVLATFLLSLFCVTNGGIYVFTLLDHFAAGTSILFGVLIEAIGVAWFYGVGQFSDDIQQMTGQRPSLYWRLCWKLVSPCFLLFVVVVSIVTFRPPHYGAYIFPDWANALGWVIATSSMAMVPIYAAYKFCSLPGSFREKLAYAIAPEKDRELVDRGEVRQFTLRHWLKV
T1 sequence (P23975 whole entry): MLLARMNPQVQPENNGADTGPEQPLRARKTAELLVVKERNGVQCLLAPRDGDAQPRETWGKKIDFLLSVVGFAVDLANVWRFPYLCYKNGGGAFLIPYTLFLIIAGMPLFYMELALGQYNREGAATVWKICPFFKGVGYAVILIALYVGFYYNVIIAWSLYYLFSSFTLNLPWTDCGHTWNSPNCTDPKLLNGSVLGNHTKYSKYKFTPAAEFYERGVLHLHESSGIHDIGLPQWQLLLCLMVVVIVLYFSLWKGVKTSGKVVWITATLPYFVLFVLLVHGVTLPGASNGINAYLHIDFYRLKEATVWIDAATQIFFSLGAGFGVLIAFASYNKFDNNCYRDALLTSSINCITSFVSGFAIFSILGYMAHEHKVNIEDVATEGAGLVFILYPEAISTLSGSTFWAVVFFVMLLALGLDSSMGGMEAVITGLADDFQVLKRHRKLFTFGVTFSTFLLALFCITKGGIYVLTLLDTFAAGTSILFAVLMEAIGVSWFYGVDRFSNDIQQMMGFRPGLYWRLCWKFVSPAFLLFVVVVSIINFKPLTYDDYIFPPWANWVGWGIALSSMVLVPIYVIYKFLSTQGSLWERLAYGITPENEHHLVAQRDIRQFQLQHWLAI

| Compound | IC50 [1, 10] | Ki [2, 11] | Ki [3, 12] | Ratio DAT/SERT [4] | % maximum release ± sem, hDAT [3H]DA [6] | % maximum release ± sem, hNET [3H]NE [8] | other results |
| --- | --- | --- | --- | --- | --- | --- | --- |
| CCCNC(C)C(=O)c1ccc2c(c1)OCO2 (centres unmarked) [PRONE, 3,4-methylenedioxy-N-propylcathinone] | 6040 ± 890 nM | 6800 ± 1900 nM | 22500 ± 8500 nM | 0.95 |  |  |  |
| CCNC(C)C(=O)c1ccc(Cl)cc1 (centres unmarked) [4-CEC, 4-Cl-ethcathinone] | 1720 ± 240 nM | 4170 ± 530 nM | 16300 ± 5700 nM | 0.39 | 1.17 ± 0.05% | 5.9 ± 2.5% | selectivity for SERT over DAT (uptake potency) [5]: 3 fold; releasing efficacy at hDAT [6]: minimal releasing efficacy; releasing efficacy at hSERT [7]: full releasing efficacy; releasing efficacy at hNET [8]: minimal releasing efficacy; EC50 [8]: > 100000 nM |
| CCCC(NCC)C(=O)c1ccc2c(c1)OCO2 (centres unmarked) [N-Et pentylone, N-ethyl pentylone] | 114 ± 29 nM | 102 ± 15 nM | 2380 ± 620 nM | 8.4 | <1% | 15.6 ± 8.4% | % maximum release ± sem, hSERT [3H]5-HT [7]: 7.2 ± 1.4%; fold increase in hDAT/hSERT selectivity ([4]; compared to pentylone): ~ 2 fold |
| CCNC(C)Cc1ccc2ccoc2c1 (stereo not drawn) [6-EAPB, N-ethyl-α-methyl-6-benzofuranethanamine] | 42 ± 14 nM | 89 ± 22 nM | 772 ± 44 nM | 1.4 |  |  |  |
| CCCNC(CCC)C(=O)c1ccccc1 (stereo not drawn) [N-propyl pentedrone, α-propylaminopentiophenone] | 306 ± 79 nM | 389 ± 67 nM | 3760 ± 820 nM | 330 |  |  |  |
| CCCCCCC(C(=O)c1ccccc1)N1CCCC1 (centres unmarked) [PV9, 1-phenyl-2-(pyrrolidin-1-yl)octan-1-one] |  |  |  | >150 |  |  | Ki [9]: 2860 ± 430 nM; Ki [2]: 18 ± 3.7 nM; IC50 [5]: > 7400 nM; Ki [3]: 468 ± 33 nM; IC50 [4]: 50.2 ± 6.6 nM |
| CCCCC(C(=O)c1ccc(C)cc1)N1CCCC1 (stereo not drawn) [4-Me-α-PHP, 4’-methyl-α–pyrrolidinohexanophenone] |  |  |  | 120 |  |  | Ki [9]: 4780 ± 260 nM; IC50 [1]: 42 ± 11 nM; Ki [2]: 23 ± 6.2 nM; IC50 [5]: 1580 ± 400 nM; Ki [3]: 750 ± 160 nM; IC50 [4]: 13.2 ± 3.6 nM |
| CCCCC(C(=O)c1ccc(F)cc1)N1CCCC1 (stereo not drawn) [4-F-α-PHP, 4’-fluoro-α–pyrrolidinohexanophenone] |  |  |  | 240 |  |  | Ki [9]: 8010 ± 840 nM; IC50 [1]: 218 ± 29 nM; Ki [2]: 122 ± 27 nM; IC50 [5]: 9110 ± 540 nM; Ki [3]: 1730 ± 250 nM; IC50 [4]: 38.2 ± 4.4 nM |
| CCCC(Cc1ccccc1)N1CCCC1 (centres unmarked) [Prolintane, 1-[1-(phenylmethyl)butyl]-pyrrolidine] |  |  |  | 11 |  |  | Ki [9]: 2520 ± 330 nM; IC50 [1]: 46 ± 6.8 nM; Ki [2]: 219 ± 19 nM; IC50 [5]: 1110 ± 350 nM; fold higher hSERT uptake potency ([5]; compared to 4-F-α-PVP): 40 fold; Ki [3]: 560 ± 190 nM; IC50 [4]: 100 ± 21 nM |
| CC(N)Cc1ccc2ccoc2c1 (stereo not drawn) [6-APB, α-methyl-6-benzofuranethanamine] | 19.8 ± 4.4 nM | 1040 ± 160 nM | 2450 ± 200 nM | 2.4 | 68.2 ± 9.0% | 69 ± 12% | releasing efficacy at hSERT [7]: fully efficacious releaser; % maximum release ± sem, hSERT [3H]5-HT [7]: 119 ± 16%; EC50 [8]: 51 ± 12 nM |
| CCCCC(NCC)C(=O)c1ccccc1 (stereo not drawn) [N-Et-Hexedrone, α-ethylaminohexanophenone] | 97.8 ± 8.3 nM | 171 ± 38 nM | 1260 ± 43 nM | 100 |  |  |  |
| CNC(C)C(=O)c1cccc(C)c1 (centres unmarked) [3-MMC, 3-methylmethcathinone] | 84 ± 23 nM | 6330 ± 720 nM | 2850 ± 720 nM | 10 |  |  | fold higher hSERT affinity ([9]; compared to MCAT): ~ 40 fold; fold higher hSERT uptake potency ([5]; compared to MCAT): 6.5 fold |
| CCCC(C(=O)c1ccc(Cl)cc1)N1CCCC1 (stereo not drawn) [4-Cl-α-PVP, 4’-chloro-α–pyrrolidinopentiophenone] | 29.1 ± 6.7 nM | 61 ± 15 nM | 281 ± 16 nM | 83 | <1% | 9.4 ± 6.0% | releasing efficacy at hDAT [6]: minimal to no releasing efficacy; releasing efficacy at hSERT [7]: minimal to no releasing efficacy; % maximum release ± sem, hSERT [3H]5-HT [7]: <1%; releasing efficacy at hNET [8]: minimal to no releasing efficacy; EC50 [8]: > 10000 nM |
| CCCCC(C(=O)c1ccc2c(c1)OCO2)N1CCCC1 (stereo not drawn) [3,4-MDPHP, 3,4-methylenedioxy-α–pyrrolidinohexanophenone] |  |  |  | 160 |  |  | Ki [9]: 2430 ± 510 nM; IC50 [1]: 47 ± 10 nM; Ki [2]: 19.2 ± 5.1 nM; IC50 [5]: 1340 ± 410 nM; Ki [3]: 935 ± 93 nM; IC50 [4]: 8.4 ± 2.2 nM |
| CC(C(=O)c1ccc2c(c1)OCO2)N(C)C (centres unmarked) [Dimethylone, bk-MDDMA] | 4200 ± 880 nM | 4210 ± 270 nM | > 10000 nM | >4.1 | <1% | 9.9 ± 2.2% | % maximum release ± sem, hSERT [3H]5-HT [7]: <1%; EC50 [8]: > 10000 nM |
| CC(C(=O)c1ccc(Cl)cc1)N1CCCC1 (stereo not drawn) [4-Cl-α-PPP, 4’-chloro-α-pyrrolidinopropiophenone] |  |  |  | 8.8 |  |  | Ki [9]: 12700 ± 3200 nM; IC50 [1]: 1420 ± 380 nM; Ki [2]: 1300 ± 450 nM; IC50 [5]: 6400 ± 1500 nM; Ki [3]: 3580 ± 920 nM; IC50 [4]: 730 ± 130 nM |
| CNC(C)Cc1ccc2ccoc2c1 (stereo not drawn) [6-MAPB, N,α-dimethyl-6-benzofuranethanamine] | 33.1 ± 2 nM | 599 ± 9.9 nM | 1480 ± 270 nM | 9.5 | 40.6 ± 8.7% | 60 ± 11% | releasing efficacy at hSERT [7]: fully efficacious; % maximum release ± sem, hSERT [3H]5-HT [7]: 107.0 ± 2.3%; EC50 [8]: 640 ± 210 nM |
| CCCC(C(=O)c1ccc(F)cc1)N1CCCC1 (stereo not drawn) [4-F-α-PVP, 4-fluoro-α–pyrrolidinopentiophenone] |  | 376 ± 70 nM |  | 360 |  |  | IC50 ([1]; read-out: Inhibition of [3H]neurotransmitter uptake IC50 ± sem, hNET [3H]NE): 118 nM; Ki ([3]; read-out: Inhibition of [125I]RTI-55 binding Ki ± sem, hNET): 1100 nM |
| CCC(C(=O)c1ccc2c(c1)OCO2)N(C)C (centres unmarked) [Dibutylone, bk-DMBDB] | 923 ± 44 nM | 581 ± 76 nM | 8400 ± 2100 nM | >32 |  |  |  |
| CCCC(C(=O)c1ccc2c(c1)CCCC2)N1CCCC1 (stereo not drawn) [TH-PVP, 3’,4’-tetramethylene-α-pyrrolidinovalerophenone] | 2130 ± 81 nM | 3090 ± 300 nM | 6950 ± 340 nM | 0.087 | <1% | <1% | selectivity for SERT over DAT (uptake potency) [5]: 12 fold; releasing efficacy at hDAT [6]: minimal to no releasing efficacy; releasing efficacy at hSERT [7]: minimal to no releasing efficacy; % maximum release ± sem, hSERT [3H]5-HT [7]: <1%; releasing efficacy at hNET [8]: minimal to no releasing efficacy; EC50 [8]: > 10000 nM |
| CCCC(NC)C(=O)c1ccc(Cl)cc1 (centres unmarked) [4-CPD, 4-chloro pentedrone] | 470 ± 140 nM | 1620 ± 400 nM | 4540 ± 890 nM | 1.3 |  |  | fold decrease in hDAT affinity [2]: 4- to 5 fold; fold increase in hSERT uptake potency [5]: 15- to 17 fold |
| CCCC(NCC)C(=O)c1ccccc1 (stereo not drawn) [α-EPP, α-ethylaminopentiophenone] | 101 ± 24 nM | 182 ± 22 nM | 700 ± 180 nM | 64 |  |  |  |
| CCCC(C(=O)c1ccc2c(c1)OCO2)N(C)C (centres unmarked) [bk-DMBDP, N,N-dimethylpentylone] | 212 ± 68 nM | 354 ± 73 nM | 2000 ± 140 nM | 11 |  |  |  |
| CNC(C)C(=O)c1ccccc1 (centres unmarked) [MCAT, methcathinone, reference compound] | 45.2 ± 4.2 nM | 7520 ± 990 nM | 5960 ± 610 nM | 130 | 79.0 ± 3.2% | 75 ± 10% | fold lower release potency at SERT ([7]; compared to release potency at NET and DAT): 50 fold; % maximum release ± sem, hSERT [3H]5-HT [7]: 65.0 ± 0.6%; EC50 [8]: 400 ± 120 nM |
| CCCC(NC)C(=O)c1ccc(C)cc1 (centres unmarked) [4-MPD, 4-methyl pentedrone] | 307 ± 61 nM | 1450 ± 310 nM | 3390 ± 480 nM |  |  |  | fold decrease in hDAT affinity [2]: 4- to 5 fold; fold increase in hSERT uptake potency [5]: 15- to 17 fold |
| CCCC(NCC)C(=O)c1ccc(C)cc1 (stereo not drawn) [4-MEAP, 4-methyl-α-ethylaminopentiophenone] | 83 ± 18 nM | 123 ± 26 nM | 576 ± 85 nM | 6.4 |  |  | fold increase in hSERT affinity ([9]; compared to pentedrone): 20 fold; fold increase in hSERT uptake potency [5]: 8 fold; fold decrease in hDAT selectivity ([4]; compared to pentedrone): 8 fold; fold decrease in DAT selectivity ([4]; compared to α-EPP): 10 fold |

From PMC6500773 (Psychopharmacology, 2018)
